{"source": "paper PMC9319634", "about": "“Antibacterial Peptide NP-6 Affects Staphylococcus aureus by Multiple Modes of Action” (International Journal of Molecular Sciences, 2022)", "key": {"[1]": {"system": "mouse red blood cells", "assay": "Hemolysis assay", "type": "cell-based", "conditions": "512 µg/mL (1MIC); mouse red blood cells in PBS 0.01 M pH 7.4, 37 °C, 1 h; absorbance 595 nm; 1% Triton X-100 = 100%; mean ± SD, n = 3", "procedure": "The hemolytic activity of the peptide was evaluated according to Tang et al. with minor modifications. To prepare the red blood cell solution, 1.0 mL of fresh mouse red blood cells was centrifuged for 5 min at 1000× g, and the precipitates were resuspended in 10 mL of PBS (0.01 M, pH 7.4). A total of 50 µL of serial dilutions of peptides (2048, 1024, 512, 256, 128, 64, 32, 16, 8, and 4 µg/mL) were prepared in a 96-well plate by dissolving NP-6 and Nisin A in PBS (0.01 M, pH 7.4). Then, 50 µL of freshly prepared mouse red blood cell solution was added and incubated at 37 °C for 1 h. A total of 50 µL of PBS buffer only and 50 µL of Triton X-100 1% (w/v) were mixed with 50 µL of mouse red blood cell solution as negative and positive controls, respectively. After 1 h of incubation, all the samples were centrifuged at 1000× g for 5 min. The supernatant was collected, and the absorbance was at 595 nm with a UV–vis instrument at 25 °C. The percent hemolysis was calculated as the following equation:(1) %hemolysis=absorbancesample−absorbancenegative/absorbancepositive−absorbancenegative×100\nMouse red blood cells that were suspended in PBS and 1% Triton X-100 represented zero hemolysis and 100% hemolysis, respectively."}, "[2]": {"system": "RAW 264.7 cells", "assay": "CCK-8 cytotoxicity assay", "type": "cell-based", "conditions": "CCK-8, 48 h incubation, absorbance 450 nm, mean, n = 3", "procedure": "RAW 264.7 cells were purchased from the National Collection of Authenticated Cell Cultures (Shanghai, China). The cells were cultured in DMEM containing 10% FBS at 37 °C in a 5% CO2 incubator at constant temperature.\nThe Cell Counting Kit-8 (CCK-8) assay was conducted to measure the cytotoxicity of the peptides towards RAW 264.7 cells according to Deng et al.. The cells were incubated in Roswell Park Memorial Institute (RPMI)-1640 medium at 37 °C in a humidified atmosphere with 5% CO2. Then, they were added to a 96-well plate (3 × 10^3 cells/well) to adhere for 18 h. A total of 100 µL of the samples with different concentrations (256, 512, 1024, and 2048 µg/mL) diluted by H2O were added and incubated for another 48 h, after which the medium was disposed. A total of 100 µL of the CCK-8 test solution was added and incubated for 2 h at 37 °C. The absorbance values of the mixture at 450 nm were determined. The survival rate of cells was calculated according to the following formula:(2) Survival rate (%)=absorbancesample−absorbanceblank/absorbancecontrol−absorbanceblank×100"}, "[3]": {"assay": "Serum stability (antimicrobial activity after incubation in fetal bovine serum, plate count)", "type": "in vitro ADME", "conditions": "peptide 1.0 mg/mL in 50% fetal bovine serum, 37 °C, 0, 3 and 6 h; remaining antimicrobial activity by plate count (CFU); repeated three times", "procedure": "The serum stability assay was conducted to evaluate the effect of serum on the antimicrobial activity of NP-6 using a method that was reported in a previous study. Peptide (1.0 mg/mL) was added to 50% fetal bovine serum and incubated at 37 °C for 0, 3, and 6 h, respectively. The cells that were incubated with PBS, NP-6, and serum were conducted as a blank and a control. The antimicrobial activity of NP-6 was measured using the plate count method. These assays were repeated three times independently. The inhibition rate of samples was calculated according to the following formula:(3) Inhibition rate (%)=Nblank−Nsample/Nblank×100 where Nblank is the colony forming units (CFU) of cells that were incubated with PBS and Nsample is the CFU of cells that were incubated with NP-6, NP-6+ serum, and serum, respectively. The inhibition rate of NP-6+ serum is expressed as the relative value to NP-6."}}, "note": "Peptide text beside a SMILES is read from it."}
{"smiles": "CC[C@H](C)[C@H](NC(=O)CNC(=O)[C@@H](NC(=O)[C@H](CCCCN)NC(=O)[C@@H](NC(=O)[C@H](CCCCN)NC(=O)[C@H](CCCCN)NC(=O)[C@H](CC(=O)O)NC(=O)CNC(=O)[C@H](C)N)[C@@H](C)CC)[C@@H](C)CC)C(=O)N[C@@H](CC(N)=O)C(=O)NCC(=O)N[C@@H](Cc1ccccc1)C(=O)NCC(=O)N[C@@H](CCCNC(=N)N)C(=O)N[C@H](C(=O)NCC(=O)N[C@@H](CCCNC(=N)N)C(=O)N[C@@H](CC(C)C)C(=O)O)[C@@H](C)CC", "note": "[NP-6] (H-AGDKKIKIGINGFGRIGRL-OH)", "values": [{"measurement": "hemolysis activity", "setting": "[1]", "value": "2.39 ± 0.13", "unit": "%"}, {"measurement": "survival rate of RAW264.7 cells", "setting": "[2]; 1 × MIC (512 µg/mL)", "value": 72.56, "unit": "%"}, {"measurement": "survival rate of RAW264.7 cells", "setting": "[2]; 2 × MIC (1024 µg/mL)", "value": 20.26, "unit": "%"}, {"measurement": "inhibition rate of NP-6 + serum samples relative to NP-6", "setting": "[3]", "value": "exceeded 80%"}]}
